# Reference: patent US20070213366A1, “Treatment of Synucleinopathies” (priority 2005, published 2007)
# “Also recorded” adds a separate entry of the source.
# Experiments:
# α-synuclein [1] = test: α-synuclein degradation/accumulation assay in COS-7 cells; type: cell-based
# Excerpt: Plasmids: C220S cDNA was generated by PCR site-specific mutagenesis. For the PCR, the 5′ primer is uchforw SEQ ID NO: 1 ([…]), and 3′ primer is uchc220s SEQ ID NO:2 (CTAAGA […]). Wt UCH-L1 served as the template. The PCR fragment was inserted into pcDNA vector. For S 18YC220S mutant, S18Y UCH-L1 served as the template in PCR. For the FLAG tagged UCH-L1, the 5′ primer is FLAGuchforw SEQ ID NO: 3 ([…] CGATGGAG), and the 3′ primer is uchrev SEQ ID NO: 4 ([…]). Wt UCH-L1 or C220S served as the template. PCR fragment was purified and inserted into pcDNA vector. For the FLAG tagged UCH-L3, the 5′ primer is L3HindIII SEQ ID NO: 5 (CTAAAGCTTATGGACTAC […]), the 3′primer is L3XhoISAA SEQ ID NO: 6 ([…]). For the UCH-L3 CKAA variant, the 5′ primer is L3 HindIII and the 3′ primer is L3XhoICKAA SEQ ID NO: 7 ([…]). α-synuclein degradation assay: Lipofectamine 2000 was used to transfect COS-7 cells according to the Invitrogen protocol. Transfected cells were cultured at 37° C. for 48 hours before being treated with 35 μM lactacystin or DMSO. After 24 hours of incubation, the cells were lysed with Tris buffer (50 mM Tris, 2% SDS, 0.1% NP-40), and subjected to SDS-PAGE, followed by quantitative Western blotting.
# In order to isolate the latter possibility, a mutant form of UCH-L3 was constructed in which the UCH-L1 farnesylation sequence was added to the UCH-L3 C-terminus. […]
# [2] = test system: primary dopaminergic cultures; test: α-synuclein toxicity in primary dopaminergic cultures; type: cell-based
# α-synuclein [3] = test: Western blot of α-synuclein in SH-SY5Y cells infected with α-synuclein-expressing adenovirus; type: cell-based; settings: normalized against actin
# Protocol: (§1) Western Blotting: Following transfer of SDS gels onto NC membrane, all membranes were blocked with 5% non-fat milk in TBST (50 mM Tris-HCl pH7.4, 150 mM NaCl, 0.1% Tween 20), and incubated with primary antibody overnight with 1% BSA in TBST, washed three times with TBST, and incubated with horseradish peroxidase-conjugated secondary antibody for 1 hour (Promega). Bound antibodies were detected using enhanced chemiluminascence (NEM).
# Since α-synuclein neurotoxicity is dose-dependent, it follows that accumulation of α-synuclein, caused by UCH-L1 farnesylation, should promote its toxicity. […] These cells express high endogenous levels of UCH-L1. […] The unit of y-axis is 10^5/ml. (F) Cell viability was assessed by the amount of metabolic activity using MTT assay. […] The effect of FTI-277 on the α-synuclein accumulation in the SH-SY5Y infected with α-synuclein-expressing adenovirus were analyzed by Western blotting (B) and the amount of α-synuclein (C) was quantified using NIH Image program and normalized against the amount of actin.
# UCH-L1 [4] = test: Total amount and turnover (pulse-chase) of UCH-L1 in SH-SY5Y cells; type: cell-based
# [5] = test system: SH-SY5Y cells overexpressing α-synuclein; test: Viability (Trypan blue, MTT) of SH-SY5Y cells infected by α-synuclein-expressing adenovirus; type: cell-based
# Protocol: Viral Infection: Viral infection and MTT assay in SH-SY5Y cells: The viruses were amplified and purified according to the published procedure. SH-SY5Y cells were grown on 100 mm petri-dishes and induced with 100 nM retinoic acid for 3-5 days before the virus infection with M.I.O at 75. Viruses were diluted with DPBS to desired M.I.O. After four hours of incubation, 10 ml growth medium was added. On the second day, cells were splitted into 96-well plates and treated with compounds for next 48 hours. The growth medium in each well was replaced with growth medium with 5 ug/ml MTT. Medium was removed after three hours incubation, and 200 ul isopropyl (0.04N HCl) was added into each well. The signal was read at 570 nm.
# Viable cell counting: At stated time poins, SH-SY5Y cells were trypsinized with 100 ul trypsin-EDTA for 1 minute and neutralized with 400 ul growth medium. Cell suspension was made up by mixing 0.2 ml of cells in growth medium, 0.3 ml of HBSS and 0.5 ml of 0.4% Trypan Blue solution. Viable cell numbers were counted by standard cell counting chamber.
# Since α-synuclein neurotoxicity is dose-dependent, it follows that accumulation of α-synuclein, caused by UCH-L1 farnesylation, should promote its toxicity. […] These cells express high endogenous levels of UCH-L1. […] The unit of y-axis is 10^5/ml. (F) Cell viability was assessed by the amount of metabolic activity using MTT assay. […]
# UCH-L1 [6] = test: 2D electrophoresis and Western blot of membrane-bound and cytosolic UCH-L1 in SH-SY5Y cells; type: cell-based; settings: compared to DMSO
# Protocol: Membrane fractionation: Cells were harvested by scraping and washed with PBS. Cell pellet was suspended in lysis buffer (50 mM Tris-HCl, 1 mM EDTA) supplemented with protease inhibitor cocktail (Sigma) and homogenized by passing through 26G needles 10 times. Suspension was clarified by spinning at 600 g for 5 minutes. Clarified suspension was ultracentrifuged at 100,000 g for 2 hours and separated into membrane and cytosol. Membrane fraction washed with washing buffer (50 mM Tris-HCl, 1 mM EDTA 1 M NaCl), and pelleted each time with bench-top centrifuge.
# 2D electrophoresis: For the isolation of total cellular protein, cultured SH-SY5Y cells maintained as described above were rinsed with ice-cold PBS. Cells were lysed in 1 ml dSDS buffer (50 mM Tris-HCl, pH 8.0 0.1% SDS) supplemented with protease inhibitor cocktail. Lysates were boiled for 3 min, and were treated with Dnase and Rnase as described. […]
# as §1, with “(NEM). […]” for “(NEM).”
# [7] = test system: ubiquitin-immunoreactive inclusions; test: Ubiquitin immunohistochemistry in α-synuclein transgenic mice; type: in vivo; settings: 35 mg/kg twice a day for 30 days, vs vehicle
# Protocol: (§2) Farnesyl transferase inhibitors Zarnestra and OSI-754 were administered to mice of the α-synuclein transgenic line described in Masliah et al. (Masliah et al. “Dopaminergic loss and inclusion body formation in alphα-synuclein mice: implications for neurodegenerative disorders” Science 287(5456): 1265-69, 2000; incorporated herein by reference). Animals from this line have α-synuclein neuronal inclusions in the cortex, hippocampus, and the olfactory bulb (Masliah et al. “Dopaminergic loss and inclusion body formation in alphα-synuclein mice: implications for neurodegenerative disorders” Science 287(5456): 1265-69, 2000; incorporated herein by reference). Transgenic mice were orally administered either FTI in 20% cyclodextrin solution or the same volume of vehicle alone twice a day for 30 or 90 days. In some cases, non-transgenic mice also received vehicle twice a day for 30 to 90 days. At the end of treatment, mice were sacrificed, and the brains removed and hemisected. […]
# (§3) Formation of α-synuclein inclusions in the cortex and hippocampus was probed by immunostaining with an antibody for full-length human α-synuclein. Cells positive for human α-synuclein were quantified. […] These regions were also analyzed for ubiquitin-immunoreactive inclusions and by the Campbell Switzer method of silver staining. […]
# farnesylated UCH-L1 = test: Quantitative Western blot of farnesylated UCH-L1 in cortex membrane fraction of α-synuclein transgenic mice; type: in vivo
# Protocol: (§4) Farnesyl transferase inhibitors Zarnestra and OSI-754 were administered to mice of the α-synuclein transgenic line described in Masliah et al. (Masliah et al. “Dopaminergic loss and inclusion body formation in alphα-synuclein mice: implications for neurodegenerative disorders” Science 287(5456): 1265-69, 2000; incorporated herein by reference). Animals from this line have α-synuclein neuronal inclusions in the cortex, hippocampus, and the olfactory bulb (Masliah et al. “Dopaminergic loss and inclusion body formation in alphα-synuclein mice: implications for neurodegenerative disorders” Science 287(5456): 1265-69, 2000; incorporated herein by reference). Transgenic mice were orally administered either FTI in 20% cyclodextrin solution or the same volume of vehicle alone twice a day for 30 or 90 days. […]
# (§5) Treatment with 35 mg/kg Zarnestra twice a day for 30 days decreased levels of α-synuclein protein in the cortex and the amount of farnesylated UCH-L1 in the cortex of transgenic mice. Total α-synuclein levels were analyzed by a sandwich ELISA assay similar to one previously described (El-Agnaf et al. “Detection of oligomeric forms of alphα-synuclein protein in human plasma as a potential biomarker for Parkinson's disease” FASEB J. 20(3):419-25, 2006; incorporated herein by reference). […] The amount of UCH-L1 was determined by quantitative Western Blot. […]
# human α-synuclein = test: Immunostaining of α-synuclein inclusions in cortex and hippocampus of α-synuclein transgenic mice; type: in vivo
# Protocol: Farnesyl transferase inhibitors Zarnestra and OSI-754 were administered to mice of the α-synuclein transgenic line described in Masliah et al. (Masliah et al. “Dopaminergic loss and inclusion body formation in alphα-synuclein mice: implications for neurodegenerative disorders” Science 287(5456): 1265-69, 2000; incorporated herein by reference). Animals from this line have α-synuclein neuronal inclusions in the cortex, hippocampus, and the olfactory bulb (Masliah et al. “Dopaminergic loss and inclusion body formation in alphα-synuclein mice: implications for neurodegenerative disorders” Science 287(5456): 1265-69, 2000; incorporated herein by reference). Transgenic mice were orally administered either FTI in 20% cyclodextrin solution or the same volume of vehicle alone twice a day for 30 or 90 days. In some cases, non-transgenic mice also received vehicle twice a day for 30 to 90 days. At the end of treatment, mice were sacrificed, and the brains removed and hemisected. One hemisphere of each was fixed in 4% paraformaldehyde/PBS (pH 7.4), cryoperserved, then sectioned for histology. The other hemisphere was subdivided into four brain regions, including the cortex and hippocampus, that were homogenized and processed into cytoplasmic and membrane fractions.
# Formation of α-synuclein inclusions in the cortex and hippocampus was probed by immunostaining with an antibody for full-length human α-synuclein. Cells positive for human α-synuclein were quantified. […] These regions were also analyzed for ubiquitin-immunoreactive inclusions and by the Campbell Switzer method of silver staining. Ubiquitin is known to be a constituent of Lewy Bodies and in the α-synculein inclusions found in the transgenic mouse line used in the study (Masliah et al. “Dopaminergic loss and inclusion body formation in alphα-synuclein mice: implications for neurodegenerative disorders” Science 287(5456): 1265-69, 2000; incorporated herein by reference). […] Campbell-Switzer staining is a general marker of Lewy Body type inclusions (Uchihara et al. “Silver stainings distinguish Lewy bodies and glial cytoplasmic inclusions: comparison between Gallyas-Braak and Campbell-Switzer methods” Acta Neuropathol. (Berl) 110(3):255-60, 2005; incorporated herein by reference).
# Formation of α-synuclein inclusions in the cortex and hippocampus was probed by immunostaining with an antibody for full-length human α-synuclein. Cells positive for human α-synuclein were quantified.
# [8] = test system: Lewy body-like inclusions; test: Campbell Switzer silver staining of Lewy body-like inclusions in α-synuclein transgenic mice; type: in vivo; settings: 35 mg/kg twice a day for 30 days, vs vehicle
# Protocol: as §2, §3
# α-synuclein [9] = test: Sandwich ELISA of total α-synuclein in cortex fractions of α-synuclein transgenic mice; type: in vivo; settings: 45 mg/kg twice a day for 30 days, vs vehicle-treated transgenic mice
# Protocol: as §4, §5
# [10] = 35 mg/kg twice a day for 30 days, vs vehicle
# [11] = 9 mg/kg twice a day for 90 days, vs vehicle
# [12] = 45 mg/kg twice a day for 90 days, vs vehicle
compound,measurement,setting,value
COC(=O)[C@H](CCSC)NC(=O)c1ccc(NC[C@@H](N)CS)cc1-c1ccccc1 [FTI-277],synuclein level,α-synuclein [1]; COS-7 cells,lowers synuclein level
same,α-synuclein toxicity,[2],inhibit α-synuclein toxicity
same,amount of α-synuclein,α-synuclein [3],reducing the amount of α-synuclein accumulation; also recorded: reduced the amount of α-synuclein
same,total amount of UCH-L1,UCH-L1 [4],reduced the total amount of UCH-L1
same,rate of turnover of UCH-L1,UCH-L1 [4]; pulse-chase experiment not shown,increased its rate of turnover
same,α-synuclein toxicity / loss of cells,"[5]; SH-SY5Y cells overexpressing α-synuclein via adenovirus, compared to DMSO",inhibits synuclein toxicity; also recorded: rescued α-synuclein toxicity; also recorded: significantly decreased loss of cells
same,neuroprotective effect of FTI-277 on co-administration of the small-molecule UCH-L1 inhibitor,"[5]; SH-SY5Y cells overexpressing α-synuclein, not shown",eliminated
same,amount of cytosolic UCH-L1,UCH-L1 [6],without affecting
same,amount of membrane bound UCH-L1,UCH-L1 [6],significant decrease; also recorded: decreased the amount of the membrane-associated species; also recorded: reducing the amount of membrane-associated protein
Cn1cncc1[C@@](N)(c1ccc(Cl)cc1)c1ccc2c(c1)c(-c1cccc(Cl)c1)cc(=O)n2C [Zarnestra],ubiquitin-immunoreactive inclusions,[7],fewer ubiquitin-immuoreactive inclusions
same,amount of farnesylated UCH-L1 in the cortex,"farnesylated UCH-L1; 35 mg/kg twice a day for 30 days, membrane fraction",decreased the amount of farnesylated UCH-L1 in transgenic mice to levels similar to non-transgenic mice
same,"α-synuclein-positive cells per mm, cortex",human α-synuclein; [10],significantly fewer
same,"α-synuclein-positive cells per mm, hippocampus",human α-synuclein; [10],significantly fewer
same,inclusions vs vehicle,"human α-synuclein; transgenic mice, 35 mg/kg orally twice a day for 30 days",fewer inclusions
same,Campbell-Switzer stained inclusions,[8],fewer inclusions
C#Cc1cccc(-c2cc(=O)n(C)c3ccc(C(O)(c4ccc(Cl)cc4)c4cncn4C)cc23)c1 (stereo not shown) [OSI-754],amount of farnesylated UCH-L1 in the cortex,"farnesylated UCH-L1; 45 mg/kg twice a day for 30 days, normalized to actin",decreased the amount of farnesylated UCH-L1
same,"α-synuclein protein levels, cortex cytoplasmic fraction",α-synuclein [9],lower α-synuclein protein levels
same,"α-synuclein protein levels, cortex membrane fraction",α-synuclein [9],lower α-synuclein protein levels
same,inclusions vs vehicle,human α-synuclein; 9 mg/kg twice a day for 90 days,fewer inclusions
same,"α-synuclein-positive cells per mm^2, cortex",human α-synuclein; [11],fewer α-synuclein-positive cells
same,"α-synuclein-positive cells per mm^2, hippocampus",human α-synuclein; [11],fewer α-synuclein-positive cells
same,inclusions vs vehicle,human α-synuclein; 45 mg/kg twice a day for 90 days,fewer inclusions
same,"α-synuclein-positive cells per mm^2, cortex",human α-synuclein; [12],fewer α-synuclein-positive cells
same,"α-synuclein-positive cells per mm^2, hippocampus",human α-synuclein; [12],fewer α-synuclein-positive cells
CC(=O)N[C@@H](CSC(=O)[C@]1([C@@H](O)C(C)C)NC(=O)[C@H](C)[C@@H]1O)C(=O)O [lactacystin],accumulation of α-synuclein,"α-synuclein [1]; transfected COS-7 cells, 16 kDa α-synuclein normalized against actin, sets the scale",100%
